Experimental findings from PMC8607231, “Generation of KS-133 as a Novel Bicyclic Peptide with a Potent and Selective VIPR2 Antagonist Activity that Counteracts Cognitive Decline in a Mouse Model of Psychiatric Disorders” (Frontiers in Pharmacology, 2021) are described below.

SMILES strings stand for the structures. Where a SMILES comes first, the peptide text is derived from it. Bridges are numbered along the chain shown (N, C = ends).

Series [1] is described as follows: Plasma and brain levels after intravenous administration. Type of series: in vivo. The conditions noted are these: mouse. From the text:
Generally, drug discovery to target molecules in the CNS is harder than in peripheral tissues. Molecule exchange between the periphery and CNS is strictly restricted by the blood−brain barrier (BBB), especially molecules with a molecular weight (MW) of >400 g/mol. In addition to the MW limit, CNS drugs need to have high lipophilicity to cross the BBB ([McMartin et al., 1987]; [Dong, 2018]), but high lipophilic small molecules likely have undesirable side effects by potential off-target binding. Conversely, the MW of KS-133 was 1558 g/mol, which would avoid off-target side effects by VIPR2-selective binding but would make it difficult to cross the BBB. […] However, it was unclear whether the alterations in CREB phosphorylation were due to directly effects of s.c. injection of Ro 25-1553 and KS-133 on VIPR2 in the CNS. […] Intranasal administration is an attractive route for drug delivery to the brain because it allows direct transport of drugs from the nasal cavity to the brain parenchyma by bypassing systemic circulation ([Thorne et al., 2004]; [Lochhead and Thorne, 2012]; [Iwasaki et al., 2019]). It has been reported that about 1% of an administered molecule enters the CNS without crossing the BBB by administration to the nasal cavity, even those with a MW of 1000 g/mol ([McMartin et al., 1987]; [Dong, 2018]). There are some reports that the BBB becomes leaky in patients with psychiatric disorders such as schizophrenia and ASD ([Patel and Frey, 2015]; [Najjar et al., 2017]; [Kealy et al., 2020]). […] In the future, to clarify the mechanism and routes of how administered KS-133 targets the CNS, detailed pharmacokinetic studies of KS-133 in healthy mice and disease model mice using s.c., i.n., and intravenous administrations will be needed.

Series [2] concerns VIPR2 activation-induced phosphorylation of CREB. The series can be described thus: Western blot of pCREB in prefrontal cortex of neonatal mice after s.c. injection. It is filed as in vivo, mouse. The conditions noted are these: ICR mice at P12, KS-133 1 nmol/g s.c. simultaneously with Ro 25-1553 0.4 nmol/g, 1 h after injection. On the procedure:
For western blot analysis, ICR neonatal mice at P12 (7–10 g body weight) were subcutaneously (s.c.) injected with KS-133 (1 nmol/g) and Ro 25-1553 (0.4 nmol/g, Peptide Institute, Inc. Osaka, Japan), a selective VIPR2 agonist ([Gourlet et al., 1997]; [Harmar et al., 2012]), and adult C57BL/6J mice at 8 weeks of age (20–30 g body weight) were intranasally (i.n.) injected with KS-133 (20 nmol/mouse) and BAY 55-9837 (20 µg/mouse, Tocris Bioscience, Bristol, United Kingdom), another selective VIPR2 agonist ([Tsutsumi et al., 2002]; [Tian et al., 2019]). The dosages of these drugs were determined in a preliminary experiment using the change in phosphorylation of cAMP-response element-binding protein (CREB) as an index. Ro 25-1553 was dissolved in phosphate-buffered saline (PBS) and BAY 55-9837 was dissolved in distilled water. KS-133 was dissolved in saline with 1% dimethyl sulfoxide (DMSO; #13445-74, Nacalai Tesque, Inc., Kyoto, Japan) for s.c. injection or saline with 5% DMSO and 5 mg/ml poly-L-arginine (#P7762, Sigma-Aldrich, St. Louis, MO, United States) for i.n. injection. […]
FIGURE 4 Effects of subcutaneous (A) and intranasal (B) administration of KS-133 on VIPR2 activation-induced phosphorylation of CREB in the prefrontal cortex of mice. Phospho-CREB (pCREB), total CREB, and β-actin levels were analyzed by western blotting. […]
On the technique in general: In western blotting, separated proteins are transferred to a membrane and probed.

As for `CC[C@H](C)[C@H](NC(=O)[C@H](CC(C)C)NC(=O)[C@@H]1CC(=O)NCCCC[C@@H]2NC(=O)[C@@H]3CCCN3C(=O)[C@H](CC(C)C)NC(=O)[C@H](Cc3ccc(O)cc3)NC(=O)[C@@H]3CCCN3C(=O)[C@@H]3CCCN3C(=O)[C@@H](NC(C)=O)CSSC[C@H](NC(=O)[C@H](CC(C)C)NC(=O)[C@H](Cc3ccc(O)cc3)NC2=O)C(=O)N1)C(N)=O` [KS-133, Ac-c[Cys-Pro-Pro-Tyr-Leu-Pro-c(Lys-Tyr-Leu-Cys]-Asp)-Leu-Ile-NH2] (Ac-CPPYLPKYLCDLI-NH2; disulfide 1-10; lactam 7-11), the tissue level at time molar at 80 min in series [1] (brain, adult male ICR mice, 80 min after intravenous KS-133 1 nmol/g, n = 3, mean ± S.E.M., unpublished data) worked out at 0.035 ± 0.005 nmol/g. Besides, the Plasma elimination half-life result in series [1] (in vivo) is given as “less than an hour”. The level at time molar at 80 min in series [1] (plasma, adult male ICR mice, 80 min after intravenous KS-133 1 nmol/g, n = 3, mean ± S.E.M., unpublished data) was 2780 ± 80 nM. Besides, the “Effect on Ro 25-1553-induced increase in CREB phosphorylation” value in series [2] is listed as “suppressed the Ro 25-1553-induced increase in CREB phosphorylation”.
